Earlier results in patent publication US8377979B2, “Pharmaceutical formulation containing phenytoin sodium and magnesium stearate” (Taro Pharmaceuticals North America, Inc., priority 2005, dated 2013).

How the values were obtained:
[1] = gastrointestinal pH range of 1 to 8
[2] = man, oral administration

SMILES: O=C1NC(=O)C(c2ccccc2)(c2ccccc2)N1 [phenytoin, 5,5-diphenyl-2,4-imidazolidinedione]
- solubility [1]: practically insoluble
- plasma half-life, average [2]: 22 h
